Data: patent publication US20230331737A1, “MTORC1 MODULATORS AND USES THEREOF” (Aeovian Pharmaceuticals, Inc., priority 2020, published 2023)

Assays:
FKBP12 = FKBP12 (Homo sapiens, UniProt P62942); assay: SPR assay to determine binding affinity to FKBP12 (direct binding); details: immobilized biotinylated avi-FKBP12, single-cycle kinetics
Method: SPR Assay to Determine Binding Affinity to FKBP12.
Biotinylated avi-FKBP12 was immobilized on a streptavidin chip (Cytiva Series S SA) using a Biacore 8K or 8k+ (Cytiva). […] Test compounds described in Table 11 were diluted in DMSO to 100× working concentration. Each test compound was 100-fold diluted in 50 mM HEPES pH 7.5, 150 mM NaCl, 2 mM MgCl2, 1 mM DTT, 0.05% Tween-20 and a serial dilution prepared (9 concentrations, 3-fold dilutions, 0.08-500 nM). […] The compound dilutions were then injected at 100 uL/min for 120 seconds contact time in sequence with increasing concentrations. Dissociation was monitored for 3600 seconds. 50 mM HEPES pH 7.5, 150 mM NaCl, 2 mM MgCl2, 1 mM DTT, 0.05% Tween-20, 1% DMSO was used as running buffer. The single-cycle kinetics data were fit to a 1:1 binding model to measure the association rate ka (1/Ms), the dissociation rate kd (1/s) and the affinity Kd (M).

[1] = target: FKBP12 ternary complex with FRB (Homo sapiens, UniProt P42345+P62942); assay: SPR assay to characterize ternary complex formation with FKBP12 (FRB injected over compound-saturated FKBP12); format: binding; details: FRB dilutions with 100 nM test compound over immobilized FKBP12
Method: Biotinylated avi-FKBP12 was immobilized on a streptavidin chip (Cytiva Series S SA) using a Biacore 8K or 8k+ (Cytiva). To achieve an immobilization level of 100 RU, 0.3 μg/ml biotinylated avi-FKBP12 were injected for 80 sec at a flow rate of 10 μl/min. Serial dilution of FRB was prepared (12 concentrations, 3-fold dilutions, 0.00011-20 μM) and supplemented with 100 nM of a test compound. A-B-A injection mode was used to ensure saturation immobilized FKBP12 with respective test compound. 100 nM solution of the respective test compound was injected before FRB injection for 120 sec and during dissociation for 420 sec. The FRB dilutions were then injected 120 seconds contact time with increasing concentrations. Rapamycin was used as reference sample. 50 mM HEPES pH 7.5, 150 mM NaCl, 2 mM MgCl2, 1 mM DTT, 0.05% Tween-20, 1% DMSO was used as running buffer at a flow rate of 30 μl/min. The multi-cycle kinetics data were fit to a 1:1 binding model to measure the association rate ka (1/Ms), the dissociation rate kd (1/s) and the affinity Kd (M). In case of fast association and dissociation, steady state affinity analysis following the law of mass action was used to determine the affinity Kd (M).

mTORC1 = target: T1, mTORC1 (Homo sapiens, UniProt P42345+P62942); assay: mTORC1 inhibition in PC-3 cells, AlphaLISA of p70S6K pT389 levels; format: cell-based; details: mTORC1 as measured by inhibition of p70S6K pT389 levels, read-out: mTROC1 IC50
T1 construct: endogenous in cells; host or cells: PC-3 cells
Method: mTORC1 inhibition was determined via analysis of phosphorylation levels of Phospho-p70 S6 kinase (p70S6K pT389) and Phospho-S6 Ribosomal Protein (pRPS6 pS240/pS244) with the corresponding AlphaLISA kits (PerkinElmer Alpha SF Ultra™ Multiplex phospho (Thr389)/total p70 S6K Assay Kit (Eu/Tb) and AlphaLISA SF Ultra™ p-Ribosomal Protein S6 (Ser240/244) Assay Kit).
%−activity=100*((Sample−Low control)/(High control−Low control))

FKBP12, sequence (P62942 whole entry, species assumed): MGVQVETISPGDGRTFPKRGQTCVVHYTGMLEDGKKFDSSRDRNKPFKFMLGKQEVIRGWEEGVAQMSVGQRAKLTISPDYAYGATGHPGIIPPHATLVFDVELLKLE

| Compound | Kd (FKBP12) | Kd [1] | IC50 (mTORC1) |
| --- | --- | --- | --- |
| CO[C@@H]1C[C@H](C[C@@H](C)[C@@H]2CC(=O)[C@H](C)/C=C(\C)[C@@H](O)[C@@H](OC)C(=O)[C@H](C)C[C@H](C)/C=C/C=C/C=C(\C)[C@H](OCC3COC3)C[C@@H]3CC[C@@H](C)[C@@](O)(O3)C(=O)C(=O)N3CCCC[C@H]3C(=O)O2)CC[C@H]1OCCO [Compound 75, (1R,9S,12S,15R,16E,18R,19R,21R,23S,24E,26E,28E,30R,32S,35R)-1,18-dihydroxy-12-[(1R)-2-[(1S,3R,4R)-4-(2-hydroxyethoxy)-3-methoxy-cyclohexyl]-1-methyl-ethyl]-19-methoxy-15,17,21,23,29,35-hexamethyl-30-(oxetan-3-ylmethoxy)-11,36-dioxa-4-azatricyclo[30.3.1.04,9]hexatriaconta-16,24,26,28-tetraene-2,3,10,14,20-pentone] | 0.3 to 1 nM | > 1100 nM | > 1.5 nM |
| CO[C@@H]1C[C@H](C[C@@H](C)[C@@H]2CC(=O)[C@H](C)/C=C(\C)[C@@H](O)[C@@H](OC)C(=O)[C@H](C)C[C@H](C)/C=C/C=C/C=C(\C)[C@@H](OCCOCCO)C[C@@H]3CC[C@@H](C)[C@@](O)(O3)C(=O)C(=O)N3CCCC[C@H]3C(=O)O2)CC[C@H]1O [Compound 524, (1R,9S,12S,15R,16E,18R,19R,21R,23S,24E,26E,28E,30S,32S,35R)-1,18-dihydroxy-30-[2-(2-hydroxyethoxy)ethoxy]-12-[(1R)-2-[(1S,3R,4R)-4-hydroxy-3-methoxy-cyclohexyl]-1-methyl-ethyl]-19-methoxy-15,17,21,23,29,35-hexamethyl-11,36-dioxa-4-azatricyclo[30.3.1.04,9]hexatriaconta-16,24,26,28-tetraene-2,3,10,14,20-pentone] | < 0.3 nM | 500 to 1100 nM | < 0.8 nM |
| CO[C@@H]1C[C@H](C[C@@H](C)[C@@H]2CC(=O)[C@H](C)/C=C(\C)[C@@H](O)[C@@H](OC)C(=O)[C@H](C)C[C@H](C)/C=C/C=C/C=C(\C)[C@H](OC3CC3)C[C@@H]3CC[C@@H](C)[C@@](O)(O3)C(=O)C(=O)N3CCCC[C@H]3C(=O)O2)CC[C@H]1O [Compound 519, (1R,9S,12S,15R,16E,18R,19R,21R,23S,24E,26E,28E,30R,32S,35R)-30-(cyclopropoxy)-1,18-dihydroxy-12-[(1R)-2-[(1S,3R,4R)-4-hydroxy-3-methoxy-cyclohexyl]-1-methyl-ethyl]-19-methoxy-15,17,21,23,29,35-hexamethyl-11,36-dioxa-4-azatricyclo[30.3.1.04,9]hexatriaconta-16,24,26,28-tetraene-2,3,10,14,20-pentone] | < 0.3 nM | < 500 nM | < 0.8 nM |
| CO[C@@H]1C[C@H](C[C@@H](C)[C@@H]2CC(=O)[C@H](C)/C=C(\C)[C@@H](O)[C@@H](OC)C(=O)[C@H](C)C[C@H](C)/C=C/C=C/C=C(\C)[C@H](OC3COC3)C[C@@H]3CC[C@@H](C)[C@@](O)(O3)C(=O)C(=O)N3CCCC[C@H]3C(=O)O2)CC[C@H]1O [Compound 124, (1R,9S,12S,15R,16E,18R,19R,21R,23S,24E,26E,28E,30R,32S,35R)-1,18-dihydroxy-12-[(2R)-1-[(1S,3R,4R)-4-hydroxy-3-methoxycyclohexyl]propan-2-yl]-19-methoxy-15,17,21,23,29,35-hexamethyl-30-(oxetan-3-yloxy)-11,36-dioxa-4-azatricyclo[30.3.1.04,9]hexatriaconta-16,24,26,28-tetraene-2,3,10,14,20-pentone] | < 0.3 nM | > 1100 nM | > 1.5 nM |
| COCCO[C@H]1C[C@@H]2CC[C@@H](C)[C@@](O)(O2)C(=O)C(=O)N2CCCC[C@H]2C(=O)O[C@H]([C@H](C)C[C@@H]2CC[C@@H](O)[C@H](OC)C2)CC(=O)[C@H](C)/C=C(\C)[C@@H](O)[C@@H](OC)C(=O)[C@H](C)C[C@H](C)/C=C/C=C/C=C/1C [Compound 529, (1R,9S,12S,15R,16E,18R,19R,21R,23S,24E,26E,28E,30S,32S,35R)-1,18-dihydroxy-12-[(1R)-2-[(1S,3R,4R)-4-hydroxy-3-methoxy-cyclohexyl]-1-methyl-ethyl]-19-methoxy-30-(2-methoxyethoxy)-15,17,21,23,29,35-hexamethyl-11,36-dioxa-4-azatricyclo[30.3.1.04,9]hexatriaconta-16,24,26,28-tetraene-2,3,10,14,20-pentone] | < 0.3 nM | < 500 nM | < 0.8 nM |
| CO[C@@H]1C[C@H](C[C@@H](C)[C@@H]2CC(=O)[C@H](C)/C=C(\C)[C@@H](O)[C@@H](OC)C(=O)[C@H](C)C[C@H](C)/C=C/C=C/C=C(\C)[C@H](OCC3COC3)C[C@@H]3CC[C@@H](C)[C@@](O)(O3)C(=O)C(=O)N3CCCC[C@H]3C(=O)O2)CC[C@H]1O [Compound 122, (1R,9S,12S,15R,16E,18R,19R,21R,23S,24E,26E,28E,30R,32S,35R)-1,18-dihydroxy-12-[(2R)-1-[(1S,3R,4R)-4-hydroxy-3-methoxycyclohexyl]propan-2-yl]-19-methoxy-15,17,21,23,29,35-hexamethyl-30-[(oxetan-3-yl)methoxy]-11,36-dioxa-4-azatricyclo[30.3.1.04,9]hexatriaconta-16,24,26,28-tetraene-2,3,10,14,20-pentone] | 0.3 to 1 nM | > 1100 nM | 0.8 to 1.5 nM |
| COCCO[C@@H]1C[C@@H]2CC[C@@H](C)[C@@](O)(O2)C(=O)C(=O)N2CCCC[C@H]2C(=O)O[C@H]([C@H](C)C[C@@H]2CC[C@@H](OCCCO)[C@H](OC)C2)CC(=O)[C@H](C)/C=C(\C)[C@@H](O)[C@@H](OC)C(=O)[C@H](C)C[C@H](C)/C=C/C=C/C=C/1C [Compound 28, (1R,9S,12S,15R,16E,18R,19R,21R,23S,24E,26E,28E,30R,32S,35R)-1,18-dihydroxy-12-[(1R)-2-[(1S,3R,4R)-4-(3-hydroxypropoxy)-3-methoxy-cyclohexyl]-1-methyl-ethyl]-19-methoxy-30-(2-methoxyethoxy)-15,17,21,23,29,35-hexamethyl-11,36-dioxa-4-azatricyclo[30.3.1.04,9]hexatriaconta-16,24,26,28-tetraene-2,3,10,14,20-pentone] | > 1 nM | 500 to 1100 nM | > 1.5 nM |
| CO[C@@H]1C[C@H](C[C@@H](C)[C@@H]2CC(=O)[C@H](C)/C=C(\C)[C@@H](O)[C@@H](OC)C(=O)[C@H](C)C[C@H](C)/C=C/C=C/C=C(\C)[C@@H](OC3CC3)C[C@@H]3CC[C@@H](C)[C@@](O)(O3)C(=O)C(=O)N3CCCC[C@H]3C(=O)O2)CC[C@H]1O [Compound 120, (1R,9S,12S,15R,16E,18R,19R,21R,23S,24E,26E,28E,30S,32S,35R)-30-(cyclopropoxy)-1,18-dihydroxy-12-[(1R)-2-[(1S,3R,4R)-4-hydroxy-3-methoxy-cyclohexyl]-1-methyl-ethyl]-19-methoxy-15,17,21,23,29,35-hexamethyl-11,36-dioxa-4-azatricyclo[30.3.1.04,9]hexatriaconta-16,24,26,28-tetraene-2,3,10,14,20-pentone] | 0.3 to 1 nM | < 500 nM | < 0.8 nM |
| CO[C@@H]1C[C@H](C[C@@H](C)[C@@H]2CC(=O)[C@H](C)/C=C(\C)[C@@H](O)[C@@H](OC)C(=O)[C@H](C)C[C@H](C)/C=C/C=C/C=C(\C)[C@H](OCCOCCO)C[C@@H]3CC[C@@H](C)[C@@](O)(O3)C(=O)C(=O)N3CCCC[C@H]3C(=O)O2)CC[C@H]1O [Compound 125, (1R,9S,12S,15R,16E,18R,19R,21R,23S,24E,26E,28E,30R,32S,35R)-1,18-dihydroxy-30-[2-(2-hydroxyethoxy)ethoxy]-12-[(1R)-2-[(1S,3R,4R)-4-hydroxy-3-methoxy-cyclohexyl]-1-methyl-ethyl]-19-methoxy-15,17,21,23,29,35-hexamethyl-11,36-dioxa-4-azatricyclo[30.3.1.04,9]hexatriaconta-16,24,26,28-tetraene-2,3,10,14,20-pentone] | < 0.3 nM | > 1100 nM | 0.8 to 1.5 nM |
